Test results taken from patent US11738031B2, “Compositions and methods for preventing or treating muscle conditions” (The Board of Trustees of the Leland Stanford Junior …, priority 2017, dated 2023).

Columns and labels:
[1] = system: MuSCs transplanted into tibialis anterior (TA) muscles of recipient mice; assay: Muscle stem cell transplantation, engraftment by bioluminescence imaging (BLI); type: in vivo, mouse; conditions: for BLI signal of engrafted MuSCs after secondary (notexin) injury: notexin re-injury one month after transplant
[2] = system: MuSCs; assay: Clonal MuSC proliferation by time-lapse microscopy (38 h); type: cell-based, mouse; conditions: PGE2 24 hr
Procedure: We assayed clonal muscle stem cell proliferation by time-lapse microscopy as previously described (26, 27). […] Cells were then trypsinized and reseeded at a density of 500 cells per cm^2 surface area in hydrogel microwells with 600 μm diameter. For time-lapse microscopy we monitored cell proliferation for those wells with single cells for 38 h days after seeding and recorded images every 3 min at 10× magnification using a PALM/AxioObserver Z1 system (Carl Zeiss MicroImaging) with a custom environmental control chamber and motorized stage. We analyzed time-lapse image sequences using the Baxter Algorithms for Cell Tracking and Lineage Reconstruction to identify and track single cells and generate lineage trees (26-28, 51, 52). Viable and dead cells were distinguished in time-lapse sequences based on phase-contrast boundary and motility maintenance or loss, respectively. […] The data analysis was blinded. The researchers performing the imaging acquisition and scoring were unaware of the treatment condition given to sample groups analyzed. Clonal muscle stem cell proliferation and fate analyses: […] Cells were then trypsinized and reseeded at a density of 500 cells per cm^2 surface area in hydrogel microwells with 600 μm diameter. For time-lapse microscopy we monitored cell proliferation for those wells with single cells for 38 h days after seeding and recorded images every 3 min at 10× magnification using a PALM/AxioObserver Z1 system (Carl Zeiss MicroImaging) with a custom environmental control chamber and motorized stage. We analyzed time-lapse image sequences using the Baxter Algorithms for Cell Tracking and Lineage Reconstruction to identify and track single cells and generate lineage trees (26-28, 51, 52). Viable and dead cells were distinguished in time-lapse sequences based on phase-contrast boundary and motility maintenance or loss, respectively. […] The data analysis was blinded. The researchers performing the imaging acquisition and scoring were unaware of the treatment condition given to sample groups analyzed.

[3] = system: aged MuSCs; assay: Aged MuSC proliferation in culture; type: cell-based, mouse
Procedure: Muscle stem cell culture, treatment and lentiviral infection: Following isolation, we resuspended MuSCs in myogenic cell culture medium containing DMEM/F10 (50:50), 15% FBS, 2.5 ng ml^−1 fibroblast growth factor-2 (FGF-2 also known as bFGF) and 1% penicillin-streptomycin. We seeded MuSC suspensions at a density of 500 cells per cm^2 surface area. We maintained cell cultures at 37° C. in 5% CO2 and changed medium daily. For PGE2, 15-PGDH inhibitor and EP4 receptor antagonist treatment studies, we added 1-200 ng/ml Prostaglandin E2 (Cayman Chemical) (unless specified in the figure legends, 10 ng/ml was the standard concentration used), and/or 1 μM EP4 antagonist (ONO-AE3-208, Cayman Chemical), or 1 μM 15-PGDH inhibitor (SW033291, Cayman Chemical) to the MuSCs cultured on collagen coated dishes for the first 24 h. The cells were then trypsinized and cells reseeded onto hydrogels for an additional 6 days of culture. All treatments were compared to their solvent (DMSO) vehicle control. For stripped serum assays, we resuspended isolated MuSCs in medium containing DMEM/F10 (50:50), 15% charcoal stripped FBS (Gibco, cat #12676011), 2.5 ng ml^−1 bFGF and 1% penicillin-streptomycin. […]
Proliferation assays: To assay proliferation, we used three different assays (hemocytometer, VisionBlue, and EdU). […] For hemocytometer cell number count, we collected cells at indicated timepoints by incubation with 0.5% trypsin in PBS for 5 min at 37° C. and quantified them using a hemocytometer at least 3 times. Additionally, we used the VisionBlue Quick Cell Viability Fluorometric Assay Kit (BioVision, catalog #K303) as a readout for cell growth in culture. Briefly, we incubated MuSCs with 10% VisionBlue in culture medium for 3 h, and measured fluorescence intensity on a fluorescence plate reader (Infinite M1000 PRO, Tecan) at Ex=530-570 nm, Em=590-620 nm. […] We quantified EdU positive cells using the MetaMorph Image Analysis software (Molecular Devices). Data analyses were blinded, where researchers performing cell scoring were unaware of the treatment condition given to sample groups analyzed.

[4] = system: TA muscles; assay: In vivo muscle force after downhill treadmill exercise, aged mice, TA; set-up: species or system mouse; conditions: aged (18-22 mo) mice, 10 μg PGE2 after each run in week 1, force at week 5
Procedure: FIGS. 5Q and 5R show twitch force and tetanic force data, respectively, from a separate experiment in which mice were treated with PGE2 or vehicle only. Importantly, we observed an increase in isometric force in aged (18-22 mo) mice injected with PGE2 and subjected to downhill treadmill exercise. Briefly, aged mice ran daily (at 20 degrees downhill and 14 meter/min maximum speed for 10 min) for 5 days and rested on days 6 and 7. This eccentric exercise regime leads to MuSC expansion due to a cycle of muscle degeneration and regeneration. […] During week 2, mice were subjected to 5 days treadmill run only.

CCCCC(C)(C)[C@H](O)/C=C/[C@H]1[C@H](O)CC(=O)[C@@H]1C/C=C\CCCC(=O)O [dmPGE2, 16,16-dimethyl prostaglandin E2]
engraftment of aged MuSCs coinjected with dmPGE2 ([1]; aged MuSCs, 250 cells, 13 nmol dmPGE2): significantly enhanced engraftment
engraftment of young MuSCs coinjected with dmPGE2 ([1]; freshly isolated MuSCs, 250 cells, 13 nmol dmPGE2): significantly enhanced engraftment
BLI signal of engrafted MuSCs after secondary (notexin) injury [1]: further increased in response to notexin injury

CCCCC[C@H](O)/C=C/[C@H]1[C@H](O)CC(=O)[C@@H]1C/C=C\CCCC(=O)O [PGE2, prostaglandin E2]
regenerative capacity of MuSCs coinjected with PGE2, by BLI ([1]; 250 GFP/Luc MuSCs into injured TAs of NSG mice (Example 3)): nearly two orders of magnitude
regenerative capacity of cultured PGE2-treated young MuSCs by BLI ([1]; acute 1-day PGE2 in culture, 250 cells transplanted on day 7 into NOD-SCID mice): enhanced by an order of magnitude
BLI signal of engrafted MuSCs after secondary (notexin) injury [1]: spike in BLI signals
cell sizes of tracked MuSCs [2]: increase in the incidence of larger cell sizes
total cells at the end of the 38 h timespan vs vehicle [2]: almost twice the number of total cells
entry into mitosis post-plating ([2]; 38 h tracking): entry into mitosis is accelerated
cumulative cell divisions and cell numbers of MuSC clones ([2]; 38 h tracking, young MuSCs): marked increase in cumulative cell divisions and cell numbers
aged MuSC proliferation in charcoal stripped serum medium ([3]; PGE2 10 ng/ml every two days for 7 days): rescued by addition of PGE2 alone
aged MuSC proliferation and Pax7 expression after 1-day pulse ([3]; PGE2 10 ng/ml or SW033291 1 μM, 24 hr, assayed at day 7): characteristic increase in proliferation and maintenance of Pax7 expression
force (twitch and tetanic) of TA muscles [4]: significant increase in force
